# Measurements reported in PubChem BioAssay (NCI).
#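 These data come from cells grown in 96-well plates and exposed to compound for 48 hours at five concentrations. Definition used: TGI = concentration required for complete inhibition of growth.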
# Tests used:
# Experiment in all cases: DTP human tumour cell line panel, 48 h
# [1] = tested on: 786-0 renal
# [2] = tested on: A498 renal
# [3] = tested on: A549 NSCLC
# [4] = tested on: ACHN renal
# [5] = tested on: CAKI-1 renal
# [6] = tested on: CCRF-CEM leukemia
# [7] = tested on: DLD-1 colon
# [8] = tested on: DMS 114 small cell lung
# [9] = tested on: DMS 273 small cell lung
# [10] = tested on: EKVX NSCLC
# [11] = tested on: HCC-2998 colon
# [12] = tested on: HCT-116 colon
# [13] = tested on: HCT-15 colon
# [14] = tested on: HL-60(TB) leukemia
# [15] = tested on: HOP-62 NSCLC
# [16] = tested on: HT29 colon
# [17] = tested on: IGROV1 ovarian
# [18] = tested on: K-562 leukemia
# [19] = tested on: KM12 colon
# [20] = tested on: KM20L2 colon
# [21] = tested on: M14 melanoma
# [22] = tested on: M19-MEL melanoma
# [23] = tested on: MALME-3M melanoma
# [24] = tested on: MOLT-4 leukemia
# [25] = tested on: NCI-H226 lung
# [26] = tested on: NCI-H23 lung
# [27] = tested on: NCI-H460 lung
# [28] = tested on: OVCAR-3 ovarian
# [29] = tested on: OVCAR-4 ovarian
# [30] = tested on: OVCAR-5 ovarian
# [31] = tested on: OVCAR-8 ovarian
# [32] = tested on: RPMI-8226 leukemia
# [33] = tested on: RXF 393 renal
# [34] = tested on: RXF-631 renal
# [35] = tested on: SF-295 CNS
# [36] = tested on: SF-539 CNS
# [37] = tested on: SK-MEL-2 melanoma
# [38] = tested on: SK-MEL-28 melanoma
# [39] = tested on: SK-MEL-5 melanoma
# [40] = tested on: SK-OV-3 ovarian
# [41] = tested on: SNB-75 CNS
# [42] = tested on: SNB-78 CNS
# [43] = tested on: SW-620 colon
# [44] = tested on: TK-10 renal
# [45] = tested on: U251 CNS
# [46] = tested on: UACC-257 melanoma
# [47] = tested on: UACC-62 melanoma
# [48] = tested on: UO-31 renal
# [49] = tested on: XF 498 CNS
# [50] = tested on: COLO 205 colon
# [51] = tested on: HOP-18 NSCLC
# [52] = tested on: HOP-92 NSCLC
# [53] = tested on: LOX IMVI melanoma
# [54] = tested on: LXFL 529 NSCLC
# [55] = tested on: NCI-H522 lung
# [56] = tested on: SF-268 CNS
# [57] = tested on: SN12C renal
# [58] = tested on: SNB-19 CNS
compound,measurement,setting,value
COC(=O)C(CC(=O)c1c[nH]c2ccccc12)c1c[nH]c2ccccc12 (centres undefined),TGI,[1],57.7 µM
same,TGI,[2],40 µM
same,TGI,[3],60.1 µM
same,TGI,[4],37.7 µM
same,TGI,[5],70.8 µM
same,TGI,[6],73.7 µM
same,TGI,[7],> 100 µM
same,TGI,[8],39.4 µM
same,TGI,[9],27.6 µM
same,TGI,[10],74.1 µM
same,TGI,[11],45.5 µM
same,TGI,[12],31.6 µM
same,TGI,[13],36.3 µM
same,TGI,[14],49.4 µM
same,TGI,[15],54.8 µM
same,TGI,[16],31.2 µM
same,TGI,[17],> 10 µM
same,TGI,[18],66.7 µM
same,TGI,[19],> 10 µM
same,TGI,[20],34 µM
same,TGI,[21],41.9 µM
same,TGI,[22],> 10 µM
same,TGI,[23],52.3 µM
same,TGI,[24],46.7 µM
same,TGI,[25],54.3 µM
same,TGI,[26],34 µM
same,TGI,[27],37.9 µM
same,TGI,[28],> 10 µM
same,TGI,[29],40.2 µM
same,TGI,[30],42.1 µM
same,TGI,[31],65 µM
same,TGI,[32],44.8 µM
same,TGI,[33],28 µM
same,TGI,[34],31.5 µM
same,TGI,[35],> 10 µM
same,TGI,[36],39.5 µM
same,TGI,[37],44.2 µM
same,TGI,[38],42.1 µM
same,TGI,[39],32.2 µM
same,TGI,[40],69.9 µM
same,TGI,[41],58 µM
same,TGI,[42],58.2 µM
same,TGI,[43],57.2 µM
same,TGI,[44],76.9 µM
same,TGI,[45],50.4 µM
same,TGI,[46],30.4 µM
same,TGI,[47],> 10 µM
same,TGI,[48],39.3 µM
same,TGI,[49],31.8 µM
COC(=O)[C@H]1N[C@@H](C(=O)OC)C23CCC[C@H]2CC[C@]1(C(OC)OC)C3,TGI,[1],> 100 µM
same,TGI,[2],> 100 µM
same,TGI,[3],> 100 µM
same,TGI,[4],> 100 µM
same,TGI,[5],> 100 µM
same,TGI,[6],> 100 µM
same,TGI,[50],> 100 µM
same,TGI,[7],> 100 µM
same,TGI,[8],> 100 µM
same,TGI,[9],> 100 µM
same,TGI,[10],> 100 µM
same,TGI,[11],> 100 µM
same,TGI,[12],> 100 µM
same,TGI,[13],> 100 µM
same,TGI,[14],> 100 µM
same,TGI,[51],> 100 µM
same,TGI,[15],> 100 µM
same,TGI,[52],> 100 µM
same,TGI,[16],> 100 µM
same,TGI,[17],> 100 µM
same,TGI,[18],> 100 µM
same,TGI,[19],> 100 µM
same,TGI,[20],> 100 µM
same,TGI,[53],> 100 µM
same,TGI,[54],> 100 µM
same,TGI,[21],> 100 µM
same,TGI,[22],> 100 µM
same,TGI,[23],> 100 µM
same,TGI,[24],> 100 µM
same,TGI,[25],> 100 µM
same,TGI,[26],> 100 µM
same,TGI,[27],> 100 µM
same,TGI,[55],> 100 µM
same,TGI,[29],> 100 µM
same,TGI,[30],> 100 µM
same,TGI,[31],> 100 µM
same,TGI,[32],> 100 µM
same,TGI,[56],> 100 µM
same,TGI,[35],> 100 µM
same,TGI,[36],> 100 µM
same,TGI,[37],> 100 µM
same,TGI,[38],> 100 µM
same,TGI,[39],> 100 µM
same,TGI,[40],> 100 µM
same,TGI,[57],> 100 µM
same,TGI,[58],> 100 µM
same,TGI,[41],> 100 µM
same,TGI,[42],> 100 µM
same,TGI,[43],> 100 µM
same,TGI,[44],> 100 µM
same,TGI,[45],> 100 µM
same,TGI,[46],> 100 µM
same,TGI,[47],> 100 µM
same,TGI,[48],> 100 µM
same,TGI,[49],> 100 µM
